Experimental data from US8802597B2, “Herbicidal pyrimidines” (E I du Pont de Nemours and Company, priority 2003, dated 2014).

How the values were obtained:
Assay in all cases: Test D pre/postemergence
Assay type in all cases: in vivo
Conditions in all cases: scale 0 to 100 (100 = complete control)
[1] = system: Russian thistle (Salsola kali)
From the text: (§1) Seeds of plant species selected from catchweed bedstraw (galium; Galium aparine), common chickweed (Stellaria media), kochia (Kochia scoparia), lambsquarters (Chenopodium album), pigweed (Amaranthus retroflexus), Russian thistle (Salsola kali), wild buckwheat (Polygonum convolvulus), wild mustard (Sinapis arvensis), winter barley (Hordeum vulgare), and wheat (Triticum aestivum) were planted and treated preemergence with test chemicals formulated in a non-phytotoxic solvent mixture which included a surfactant.
(§2) At the same time, plants selected from these crop and weed species were treated with postemergence applications of some of the test chemicals formulated in the same manner. Plants ranged in height from 2 to 18 cm (1- to 4-leaf stage) for postemergence treatments. Treated plants and controls were maintained in a controlled growth environment for 15 to 25 days after which time all species were compared to controls and visually evaluated. Plant response ratings, summarized in Table D, are based on a scale of 0 to 100 where 0 is no effect and 100 is complete control. A dash (-) response means no test result.

[2] = system: pigweed (Amaranthus retroflexus)
From the text: as §1, §2

[3] = system: wild mustard (Sinapis arvensis)
From the text: as §1, §2

[4] = system: kochia (Kochia scoparia)
From the text: as §1, §2

[5] = system: catchweed bedstraw (galium; Galium aparine)
From the text: as §1, §2

[6] = system: common chickweed (Stellaria media)
From the text: as §1, §2

[7] = system: lambsquarters (Chenopodium album)
From the text: as §1, §2

[8] = system: wheat (Triticum aestivum)
From the text: as §1, §2

[9] = system: wild buckwheat (Polygonum convolvulus)
From the text: as §1, §2

CCOC(=O)Cc1nc(C2CC2)nc(N=CN(C)C)c1Br [Compound 33]
Plant response rating, Russian Thistle ([1]; Postemergence, 62 g ai/ha): 30 | Plant response rating, Russian Thistle ([1]; Postemergence, 125 g ai/ha): 40 | Plant response rating, Russian Thistle ([1]; Postemergence, 250 g ai/ha): 40 | Plant response rating, Russian Thistle ([1]; Preemergence, 62 g ai/ha): 55 | Plant response rating, Russian Thistle ([1]; Preemergence, 125 g ai/ha): 60 | Plant response rating, Russian Thistle ([1]; Preemergence, 250 g ai/ha): 85 | Plant response rating, Pigweed ([2]; Postemergence, 62 g ai/ha): 45 | Plant response rating, Pigweed ([2]; Postemergence, 125 g ai/ha): 55 | Plant response rating, Pigweed ([2]; Postemergence, 250 g ai/ha): 55 | Plant response rating, Pigweed ([2]; Preemergence, 62 g ai/ha): 60 | Plant response rating, Pigweed ([2]; Preemergence, 125 g ai/ha): 70 | Plant response rating, Pigweed ([2]; Preemergence, 250 g ai/ha): 90 | Plant response rating, Mustard, Wild ([3]; Postemergence, 62 g ai/ha): 50 | Plant response rating, Mustard, Wild ([3]; Postemergence, 125 g ai/ha): 50 | Plant response rating, Mustard, Wild ([3]; Postemergence, 250 g ai/ha): 50 | Plant response rating, Mustard, Wild ([3]; Preemergence, 62 g ai/ha): 65 | Plant response rating, Mustard, Wild ([3]; Preemergence, 125 g ai/ha): 65 | Plant response rating, Mustard, Wild ([3]; Preemergence, 250 g ai/ha): 65 | Plant response rating, Kochia ([4]; Postemergence, 62 g ai/ha): 50 | Plant response rating, Kochia ([4]; Postemergence, 125 g ai/ha): 50 | Plant response rating, Kochia ([4]; Postemergence, 250 g ai/ha): 50 | Plant response rating, Kochia ([4]; Preemergence, 62 g ai/ha): 60 | Plant response rating, Kochia ([4]; Preemergence, 125 g ai/ha): 65 | Plant response rating, Kochia ([4]; Preemergence, 250 g ai/ha): 65 | Plant response rating, Galium ([5]; Postemergence, 62 g ai/ha): 55 | Plant response rating, Galium ([5]; Postemergence, 125 g ai/ha): 60 | Plant response rating, Galium ([5]; Postemergence, 250 g ai/ha): 65 | Plant response rating, Galium ([5]; Preemergence, 62 g ai/ha): 70 | Plant response rating, Galium ([5]; Preemergence, 125 g ai/ha): 80 | Plant response rating, Galium ([5]; Preemergence, 250 g ai/ha): 100 | Plant response rating, Chickweed ([6]; Postemergence, 62 g ai/ha): 40 | Plant response rating, Chickweed ([6]; Postemergence, 125 g ai/ha): 50 | Plant response rating, Chickweed ([6]; Postemergence, 250 g ai/ha): 60 | Plant response rating, Chickweed ([6]; Preemergence, 250 g ai/ha): 65 | Plant response rating, Lambsquarters ([7]; Postemergence, 62 g ai/ha): 30 | Plant response rating, Lambsquarters ([7]; Postemergence, 125 g ai/ha): 30 | Plant response rating, Lambsquarters ([7]; Postemergence, 250 g ai/ha): 45 | Plant response rating, Lambsquarters ([7]; Preemergence, 62 g ai/ha): 60 | Plant response rating, Lambsquarters ([7]; Preemergence, 125 g ai/ha): 65 | Plant response rating, Lambsquarters ([7]; Preemergence, 250 g ai/ha): 65 | Plant response rating, Wheat ([8]; Postemergence, 62 g ai/ha): 35 | Plant response rating, Wheat ([8]; Postemergence, 125 g ai/ha): 40 | Plant response rating, Wheat ([8]; Postemergence, 250 g ai/ha): 45 | Plant response rating, Wheat ([8]; Preemergence, 62 g ai/ha): 15 | Plant response rating, Wheat ([8]; Preemergence, 125 g ai/ha): 35 | Plant response rating, Wheat ([8]; Preemergence, 250 g ai/ha): 55 | Plant response rating, Buckwheat, Wild ([9]; Postemergence, 62 g ai/ha): 40 | Plant response rating, Buckwheat, Wild ([9]; Postemergence, 125 g ai/ha): 50 | Plant response rating, Buckwheat, Wild ([9]; Postemergence, 250 g ai/ha): 55 | Plant response rating, Buckwheat, Wild ([9]; Preemergence, 62 g ai/ha): 55 | Plant response rating, Buckwheat, Wild ([9]; Preemergence, 125 g ai/ha): 65 | Plant response rating, Buckwheat, Wild ([9]; Preemergence, 250 g ai/ha): 65
